Where two headings read alike, the source gives them in different places.

In general, IC50 refers to the concentration that inhibits the measured activity by half.

For this test, the target named is P2X7 receptor (Homo sapiens (Human), UniProt Q99572). Put plainly: P2X7 FLIPR assay (BzATP-stimulated calcium fluorescence, antagonist IC50). It is filed as cell-based. In a few lines:
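Cells expressing P2X7 receptor (human, rat or mouse), plated 24 hours earlier in low-serum medium, loaded with Fluo-4 NW dye (30 min 37° C, 30 min room temperature).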

Chain of P2X7 receptor (Q99572 whole entry): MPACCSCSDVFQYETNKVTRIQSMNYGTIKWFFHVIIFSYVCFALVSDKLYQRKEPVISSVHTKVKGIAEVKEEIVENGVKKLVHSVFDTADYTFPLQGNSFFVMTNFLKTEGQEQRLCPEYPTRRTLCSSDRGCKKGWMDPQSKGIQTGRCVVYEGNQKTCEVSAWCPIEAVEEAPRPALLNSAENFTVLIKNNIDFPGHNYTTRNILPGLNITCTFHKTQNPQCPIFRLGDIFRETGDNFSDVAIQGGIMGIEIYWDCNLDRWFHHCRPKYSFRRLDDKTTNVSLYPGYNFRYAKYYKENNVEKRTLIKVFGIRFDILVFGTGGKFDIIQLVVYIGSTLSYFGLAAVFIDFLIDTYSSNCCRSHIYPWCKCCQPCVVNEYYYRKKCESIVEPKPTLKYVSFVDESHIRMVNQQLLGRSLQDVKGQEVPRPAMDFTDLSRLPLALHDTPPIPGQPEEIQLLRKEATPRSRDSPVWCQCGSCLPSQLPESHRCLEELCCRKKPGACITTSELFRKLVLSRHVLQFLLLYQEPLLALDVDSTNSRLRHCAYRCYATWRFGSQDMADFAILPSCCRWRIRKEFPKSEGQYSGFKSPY

As to `Cc1c(Br)cccc1C(=O)NCC1(c2ccc(C(F)(F)F)nc2)CCC(F)(F)CC1` [3-bromo-N-((4,4-difluoro-1-(6-(trifluoromethyl)pyridin-3-yl)cyclohexyl)methyl)-2-methylbenzamide], the IC50 stood at 0.71 nM.
Still for that read-out and setting: next, `Cc1cccc(C(=O)NCC2(c3ccc(F)nc3)CCC(F)(F)CC2)c1F` [N-((4,4-difluoro-1-(6-fluoropyridin-3-yl)cyclohexyl)methyl)-2-fluoro-3-methylbenzamide]: 78 nM; `Cc1ccc(Cl)c(C(=O)NCC2(c3ccc(C)nc3)CCOCC2)c1` [2-Chloro-5-methyl-N-[4-(6-methyl-pyridin-3-yl)-tetrahydro-pyran-4-ylmethyl]-benzamide]: 3400 nM; `Cc1ccccc1C(=O)NCC1(c2ccc(Cl)cc2)CCN(C)CC1` [N-[4-(4-Chloro-phenyl)-1-methyl-piperidin-4-ylmethyl]-2-methyl-benzamide]: 60 nM.
Same read-out and setting: as for `O=C(NCC(CC1(C(F)F)CC1)c1ccc(C(F)(F)F)nc1)c1cccc(Cl)c1Cl` (stereo not shown) [2,3-dichloro-N-[3-[1-(difluoromethyl)cyclopropyl]-2-[6-(trifluoromethyl)-3-pyridyl]propyl]benzamide], the figure is 1.6 nM; as for `Cc1ncc(C(CNC(=O)c2ccccc2Cl)c2ccncc2)cn1` (stereo not shown) [2-chloro-N-[2-(2-methylpyrimidin-5-yl)-2-(4-pyridyl)ethyl]benzamide], 1300 nM.
Same read-out and setting: as for `O=C(NCC1(c2cccnc2)CCCC1)c1cccc(Cl)c1Cl` [2,3-Dichloro-N-(1-pyridin-3-yl-cyclopentylmethyl)-benzamide], the figure is 2200 nM.
Regarding `O=C(NCC(CC1CC1)c1cnc(C(F)F)nc1)c1cccc(Cl)c1Cl` (single isomer, unassigned; (+)) [(+)2,3-dichloro-N-[3-cyclopropyl-2-[2-(difluoromethyl)pyrimi] [(+)2,3-dichloro-N-[3-cyclopropyl-2-[2-(difluoromethyl)pyrimidin-5-yl]propyl]benzamide], the IC50 worked out at 23 nM.
As for `O=C(NCC(c1ccc(F)cc1)c1cnc(C(F)(F)F)nc1)c1cccc(Cl)c1Cl` (single isomer, unassigned; (+)) [(+)2,3-dichloro-N-[2-(4-fluorophenyl)-2-[2-(trifluoromethyl)] [(+)2,3-dichloro-N-[2-(4-fluorophenyl)-2-[2-(trifluoromethyl)pyrimidin-5-yl]ethyl]benzamide], the IC50 was found to be 1.1 nM.
For the compound `O=C(NCC(c1cnc(C(F)(F)F)nc1)C1CCC(F)(F)CC1)c1cccc(Cl)c1Cl` (single isomer, unassigned; (+)) [(+)2,3-dichloro-N-[2-(4,4-difluorocyclohexyl)-2-[2-(trifluor] [(+)2,3-dichloro-N-[2-(4,4-difluorocyclohexyl)-2-[2-(trifluoromethyl)pyrimidin-5-yl]ethyl]benzamide], the IC50 came out at 5.7 nM.
`O=C(NCC(c1ccncc1)c1cnc(C(F)(F)F)nc1)c1ccccc1Cl` (stereo not shown) [2-chloro-N-[2-(4-pyridyl)-2-[2-(trifluoromethyl)pyrimidin-5-yl]ethyl]benzamide]: the IC50 was 30 nM.
For the compound `COc1cccc(C(=O)NCC(CC2CC2)c2cnc(C(F)(F)F)nc2)c1Cl` (single isomer, unassigned; (-)) [(−)2-chloro-N-[3-cyclopropyl-2-[2-(trifluoromethyl)pyrimidin] [(−)2-chloro-N-[3-cyclopropyl-2-[2-(trifluoromethyl)pyrimidin-5-yl]propyl]-3-methoxy-benzamide], the IC50 came out at 3.4 nM.
Regarding `O=C(NCC1(c2ccc(F)nc2)CCC(F)(F)CC1)c1ccccc1F` [N-[4,4-Difluoro-1-(6-fluoro-pyridin-3-yl)-cyclohexylmethyl]-] [N-[4,4-Difluoro-1-(6-fluoro-pyridin-3-yl)-cyclohexylmethyl]-2-fluoro-benzamide], the IC50 worked out at 14 nM.
On to `O=C(NCC1(c2ccc(F)nc2)CCC(F)(F)CC1)c1cc(Cl)ccc1Cl` [2,5-dichloro-N-((4,4-difluoro-1-(6-fluoropyridin-3-yl)cyclohexyl)methyl)benzamide], for which the IC50 was determined as 2.3 nM.
Still for that read-out and setting: next, `Cc1ncc(C(CNC(=O)c2cccc(Cl)c2Cl)C2CCC(F)(F)CC2)cn1` (stereo not shown) [2,3-dichloro-N-[2-(4,4-difluorocyclohexyl)-2-(2-methylpyrimidin-5-yl)ethyl]benzamide]: 6.2 nM; `O=C(NCC(CC1(C(F)(F)F)CC1)c1ccc(C2CC2)nc1)c1cccc(Cl)c1Cl` (stereo not shown) [2,3-dichloro-N-[2-(6-cyclopropyl-3-pyridyl)-3-[1-(trifluoromethyl)cyclopropyl]propyl]benzamide]: 15 nM.
For the compound `CC(CNC(=O)c1ccccc1Cl)(CC1CC1)c1cnc(C(F)(F)F)nc1` (single isomer, unassigned; (+)) [(+)2-chloro-N-[3-cyclopropyl-2-methyl-2-[2-(trifluoromethyl)] [(+)2-chloro-N-[3-cyclopropyl-2-methyl-2-[2-(trifluoromethyl)pyrimidin-5-yl]propyl]benzamide], the IC50 worked out at 460 nM.
As to `O=C(NCC(c1ccc(F)cc1)c1cnc(C(F)(F)F)nc1)c1cccc(F)c1Cl` (single isomer, unassigned; (+)) [(+)2-chloro-3-fluoro-N-[2-(4-fluorophenyl)-2-[2-(trifluorome] [(+)2-chloro-3-fluoro-N-[2-(4-fluorophenyl)-2-[2-(trifluoromethyl)pyrimidin-5-yl]ethyl]benzamide], the IC50 turned out to be 4.8 nM.
On the same count and under the same terms, next, `O=C(NCC(CC1CC1)c1ccc(C(F)(F)F)nc1)c1c(Cl)cccc1Cl` (single isomer, unassigned; (-)) [(−)2,6-dichloro-N-[3-cyclopropyl-2-[6-(trifluoromethyl)-3-py] [(−)2,6-dichloro-N-[3-cyclopropyl-2-[6-(trifluoromethyl)-3-pyridyl]propyl]benzamide]: 1.2 nM; `Cc1ccc(C(CNC(=O)c2cccc(Cl)c2Cl)CC2CC2)c(C)n1` (stereo not shown) [2,3-dichloro-N-[3-cyclopropyl-2-(2,6-dimethyl-3-pyridyl)propyl]benzamide]: 1300 nM.
On to “(−)2,3-dichloro-N-[3-cyclopropyl-2]benzamide”, for which the IC50 turned out to be 1.9 nM.
Turning to `O=C(NCC(CC1CC1)c1ccc(F)nc1)c1ccccc1Cl` (single isomer, unassigned; (-)) [Example 4x, (−)-2-chloro-N-(3-cyclopropyl-2-(6-fluoropyridin-3-yl)propyl)benzamide], the IC50 (listed as (−)2-chloro-N-[3-cyclopropyl-2-(6-fluoro-3-pyridyl)propyl]benzamide) was found to be 16 nM.
With `O=C(NCC(CC1CC1)c1cnc(C(F)(F)F)nc1)c1cccc(Cl)c1Cl` (single isomer, unassigned; (-)) [(−)2,3-dichloro-N-[3-cyclopropyl-2-[2-(trifluoromethyl)pyrim] [(−)2,3-dichloro-N-[3-cyclopropyl-2-[2-(trifluoromethyl)pyrimidin-5-yl]propyl]benzamide], the IC50 stood at 0.86 nM.
As for `O=C(NCC(CC1CC1)c1ccc(C(F)(F)F)nc1)c1cccc(C(F)(F)F)c1Cl` (single isomer, unassigned; (-)) [(−)2-chloro-N-[3-cyclopropyl-2-[6-(trifluoromethyl)-3-pyridy] [(−)2-chloro-N-[3-cyclopropyl-2-[6-(trifluoromethyl)-3-pyridyl]propyl]-3-(trifluoromethyl)benzamide], the IC50 was found to be 110 nM.
With `O=C(NCC(CC1CC1)c1ccc(C(F)F)nc1)c1cccc(F)c1Cl` (single isomer, unassigned; (-)) [(−)2-chloro-N-[3-cyclopropyl-2-[6-(difluoromethyl)-3-pyridyl] [(−)2-chloro-N-[3-cyclopropyl-2-[6-(difluoromethyl)-3-pyridyl]propyl]-3-fluoro-benzamide], the IC50 was determined as 19 nM.
Turning to `O=C(NCC(CC1CC1)c1ccc(C(F)(F)F)nc1)c1ccccc1Cl` (stereo not shown) [2-chloro-N-[3-cyclopropyl-2-[6-(trifluoromethyl)-3-pyridyl]propyl]benzamide], the half-maximal inhibitory concentration (IC50) stood at 3.4 nM.
On the same count and under the same terms, as for `O=C(NCC1(c2ccc(Cl)cc2)CCOCC1)c1ccccc1C(F)(F)F` [N-[4-(4-Chloro-phenyl)-tetrahydro-pyran-4-ylmethyl]-2-trifluoromethyl-benzamide], the figure is 1200 nM; as for `O=C(NCC1(c2ccc(Cl)cc2)CCOCC1)c1ccccc1Cl` [2-Chloro-N-[4-(4-chloro-phenyl)-tetrahydro-pyran-4-ylmethyl]-benzamide], 800 nM.
The same measure, in the same setting: next, `COc1cccc(C(=O)NCC(CC2CC2)c2cnc(C(F)(F)F)nc2)c1C` (single isomer, unassigned; (-)) [(−)N-[3-cyclopropyl-2-[2-(trifluoromethyl)pyrimidin-5-yl]pro] [(−)N-[3-cyclopropyl-2-[2-(trifluoromethyl)pyrimidin-5-yl]propyl]-3-methoxy-2-methyl-benzamide]: 1.4 nM.
As to `Cc1ncc(C2(CNC(=O)c3cccc(Cl)c3Cl)CCOC2)cn1` (stereo not shown) [2,3-dichloro-N-((3-(2-methylpyrimidin-5-yl)tetrahydrofuran-3-yl)methyl)benzamide], the IC50 amounted to 15 nM.
The same measure, in the same setting: next, `Cc1ncc(C(CNC(=O)c2c(F)cccc2Cl)C2CCC(F)(F)CC2)cn1` (stereo not shown) [2-chloro-N-[2-(4,4-difluorocyclohexyl)-2-(2-methylpyrimidin-5-yl)ethyl]-6-fluoro-benzamide]: 150 nM; `CS(=O)(=O)c1ccccc1C(=O)NCC1(c2ccc(C(F)(F)F)nc2)CCC(F)(F)CC1` [N-((4,4-difluoro-1-(6-(trifluoromethyl)pyridin-3-yl)cyclohexyl)methyl)-2-(methylsulfonyl)benzamide]: 480 nM.
On to `O=C(NCC(CC1CC1)c1cnc(C(F)(F)F)nc1)c1c(Cl)cccc1Cl` (stereo not shown) [2,6-dichloro-N-(3-cyclopropyl-2-(2-(trifluoromethyl)pyrimidi] [2,6-dichloro-N-(3-cyclopropyl-2-(2-(trifluoromethyl)pyrimidin-5-yl)propyl)benzamide], for which the IC50 stood at 5.1 nM.
Take `Cc1ncc(C(CNC(=O)c2c(F)cccc2Cl)C2CCOCC2)cn1` (stereo not shown) [2-chloro-6-fluoro-N-[2-(2-methylpyrimidin-5-yl)-2-tetrahydropyran-4-yl-ethyl]benzamide]: the IC50 is 1900 nM.

Values taken from US9102591B2, “Benzamides” (H. Lundbeck A/S, priority 2012, dated 2015).
